This assay addresses Histone deacetylase (Homo sapiens) (UniProt Q13547+O15379+Q9UBN7+Q92769+Q9UQL6+Q8WUI4+Q9BY41+Q96DB2+P56524+Q9UKV0+Q969S8). Description: Inhibition of HDAC in human HeLa nuclear extract at 1 uM using Boc-Lys(acetyl)-AMC as fluorogenic substrate measured after 1 hr by flourescence plate reader method relative to control. In kind it is subcellular. Particulars: Nucleus.

For orientation: inhibition means the relative decrease from the control value, in per cent. Consider `O=C(CCCSC[C@H](NS(=O)(=O)c1cccc(F)c1)C(=O)N[C@@H](Cc1c[nH]c2ccccc12)C(=O)NC1CCC1)NO`, for which the inhibition is 82%.

Values taken from ChEMBL document CHEMBL5055644, “Cysteine derivatives as acetyl lysine mimics to inhibit zinc-dependent histone deacetylases for treating cancer” (Eur J Med Chem, 2021).
